According to PMC11606603, “The membrane domains of mammalian adenylyl cyclases are lipid receptors” (eLife, 2024):
Where “and” joins values, the source holds several entries; their conditions need not be identical. Equal values may be shown once.

How the values were obtained:
Format in all cases: biochemical
mAC9 = molecular target: T1, mAC9 (Homo sapiens, UniProt O60503); assay: AC assay, Gsα-stimulated mAC9 in membranes from transfected HEK293 cells; settings: 300 nM Gsα, single experiments
T1 construct: Human mAC genes were from GenScript and fitted with a C-terminal FLAG-tag; FLAG (C); made in house; host or cells: HEK293, permanently transfected; membrane preparation
Protocol: (§1) hAC sequences were from NCBI were: ADCY1: NM_021116.3; ADCY2: NM_020546.2; ADCY3: NM_004036.4; ADCY4: NM_001198568.2; ADCY5: NM_183357.2; ADCY6: NM_015270.4; ADCY7: NM_001114.4; ADCY8: NM_001115.2; ADCY9: NM_001116.3. Human mAC genes were from GenScript and fitted with a C-terminal FLAG-tag. […] The gene was synthesized by GenScript. HEK293 cells were maintained in Dulbeccos Modified Eagle Medium (DMEM) with 10% fetal bovine serum at 37°C and 5% CO2. Transfection with AC plasmids was with PolyJet (SignaGen, Frederick, MD, USA). Permanent cell lines were generated by selection for 7 days with 600 µg/ml G418 and maintained with 300 µg/ml For membrane preparation, cells were tyrpsinized, collected by centrifugation (3000 × g, 5 min) and lysed and homogenized in 20 mM HEPES, pH 7.5, 1 mM Ethylenediaminetetraacetic acid (EDTA), 2 mM MgCl2, 1 mM Dithiothreitol (DTT), one tablet of cOmplete, EDTA-free (per 50 ml) and 250 mM sucrose by 20 strokes in a potter homogenizer on ice. Debris was removed (5 min at 1000 × g, 0°C), membranes were collected at 100,000 × g, 60 min at 0°C, suspended and stored at −80°C in 20 mM MOPS, pH 7.5, 0.5 mM EDTA, 2 mM MgCl2. […] Three cerebral cortices were dissected and homogenized in 4.5 ml cold 48 mM Tris–HCl, pH 7.4, 12 mM MgC1_2, and 0.1 mM Ethylene glycol-bis(β-aminoethyl ether)-N,N,N′,N′-tetraacetic acid (EGTA) with a Polytron hand disperser (Kinematica AG, Switzerland). […] The pellet was washed once with 5 ml 1 mM KHCO3. The final suspension in 2 ml 1 mM KHCO3 was stored in aliquots at −80°C.
(§2) In a volume of 10 μl, AC activities were measured using 1 mM ATP, 2 mM MgCl2, 3 mM creatine phosphate, 60 μg/ml creatine kinase, and 50 mM MOPS pH 7.5. The cAMP assay kit from Cisbio (Codolet, France) was used for detection according to the supplier’s instructions. For each assay, a cAMP standard curve was established. EC50 and IC50 values were calculated by GraphPad Prism version 8.4.3 for Windows, GraphPad Software, San Diego, CA, USA, https://www.graphpad.com .

mAC2 = molecular target: T2, mAC2 (Homo sapiens, UniProt Q08462); assay: AC assay, Gsα-stimulated mAC2 in membranes from transfected HEK293 cells; settings: Figure 5-figure supplement 1 left, 20 µM
T2 construct: Human mAC genes were from GenScript and fitted with a C-terminal FLAG-tag; FLAG (C); made in house; host or cells: HEK293, permanently transfected; membrane preparation
Protocol: as §1, §2

mAC1 = molecular target: T3, mAC1 (Homo sapiens, UniProt Q08828); assay: AC assay, Gsα-stimulated mAC1 in membranes from transfected HEK293 cells
T3 construct: Human mAC genes were from GenScript and fitted with a C-terminal FLAG-tag; FLAG (C); made in house; host or cells: HEK293, permanently transfected; membrane preparation
Protocol: as §1, §2

mAC5 = molecular target: T4, mAC5 (Homo sapiens, UniProt O95622); assay: AC assay, Gsα-stimulated mAC5 in membranes from transfected HEK293 cells; settings: 20µM fatty acid concentration
T4 construct: Human mAC genes were from GenScript and fitted with a C-terminal FLAG-tag; FLAG (C); made in house; host or cells: HEK293, permanently transfected; membrane preparation
Protocol: as §1, §2

mAC8 = molecular target: T5, mAC8 (Homo sapiens, UniProt P40145); assay: AC assay, Gsα-stimulated mAC8 in membranes from transfected HEK293 cells; settings: 20µM fatty acid concentration
T5 construct: Human mAC genes were from GenScript and fitted with a C-terminal FLAG-tag; FLAG (C); made in house; host or cells: HEK293, permanently transfected; membrane preparation
Protocol: as §1, §2

mAC7 = molecular target: T6, mAC7 (Homo sapiens, UniProt P51828); assay: AC assay, Gsα-stimulated mAC7 in membranes from transfected HEK293 cells; settings: Figure 5-figure supplement 2 left, 20 µM
T6 construct: Human mAC genes were from GenScript and fitted with a C-terminal FLAG-tag; FLAG (C); made in house; host or cells: HEK293, permanently transfected; membrane preparation
Protocol: as §1, §2

mAC4 = molecular target: T7, mAC4 (Homo sapiens, UniProt Q8NFM4); assay: AC assay, Gsα-stimulated mAC4 in membranes from transfected HEK293 cells
T7 construct: Human mAC genes were from GenScript and fitted with a C-terminal FLAG-tag; FLAG (C); made in house; host or cells: HEK293, permanently transfected; membrane preparation
T7 sequence (Q8NFM4 1-1077): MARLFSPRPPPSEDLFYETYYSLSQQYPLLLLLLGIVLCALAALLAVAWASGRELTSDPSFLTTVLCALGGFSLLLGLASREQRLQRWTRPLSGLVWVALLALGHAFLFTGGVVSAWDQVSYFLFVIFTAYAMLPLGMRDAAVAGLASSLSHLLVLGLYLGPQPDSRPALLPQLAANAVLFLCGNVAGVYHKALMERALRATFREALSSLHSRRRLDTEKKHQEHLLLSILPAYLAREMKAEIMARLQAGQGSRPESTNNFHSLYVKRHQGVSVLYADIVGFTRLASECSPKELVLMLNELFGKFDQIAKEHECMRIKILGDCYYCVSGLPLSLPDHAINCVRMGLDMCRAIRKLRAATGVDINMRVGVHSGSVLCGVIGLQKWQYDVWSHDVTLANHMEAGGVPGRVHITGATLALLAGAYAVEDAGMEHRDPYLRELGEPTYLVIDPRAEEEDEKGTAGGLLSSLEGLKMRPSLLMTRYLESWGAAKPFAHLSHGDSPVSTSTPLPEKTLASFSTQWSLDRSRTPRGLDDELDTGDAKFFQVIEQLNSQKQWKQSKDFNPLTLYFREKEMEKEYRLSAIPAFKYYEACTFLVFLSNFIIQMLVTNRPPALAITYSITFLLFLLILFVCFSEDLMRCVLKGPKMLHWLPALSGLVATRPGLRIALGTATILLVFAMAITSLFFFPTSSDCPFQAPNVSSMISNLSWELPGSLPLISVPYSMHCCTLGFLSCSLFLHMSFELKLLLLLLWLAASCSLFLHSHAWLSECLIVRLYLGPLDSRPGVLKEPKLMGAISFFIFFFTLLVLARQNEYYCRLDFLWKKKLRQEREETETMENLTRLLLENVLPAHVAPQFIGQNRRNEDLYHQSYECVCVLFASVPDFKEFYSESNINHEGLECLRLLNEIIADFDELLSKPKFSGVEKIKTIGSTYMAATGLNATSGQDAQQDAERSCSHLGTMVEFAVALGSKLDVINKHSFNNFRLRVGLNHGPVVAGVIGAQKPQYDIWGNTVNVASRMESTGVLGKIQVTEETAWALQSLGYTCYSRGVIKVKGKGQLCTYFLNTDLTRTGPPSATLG
Protocol: as §1, §2

mAC3 = molecular target: T8, mAC3 (Homo sapiens, UniProt O60266); assay: AC assay, Gsα-stimulated mAC3 in membranes from transfected HEK293 cells; settings: for Effect of lipid on 300 nM Gsα-stimulated mAC3: 20 µM, in words; for mAC3 activity [%] (100% = 300nM Gsα stimulation): fatty acid 20 µM, individual experiments
T8 construct: Human mAC genes were from GenScript and fitted with a C-terminal FLAG-tag; FLAG (C); made in house; host or cells: HEK293, permanently transfected; membrane preparation
Protocol: as §1, §2

mAC6 = molecular target: T9, mAC6 (Homo sapiens, UniProt O43306); assay: AC assay, Gsα-stimulated mAC6 in membranes from transfected HEK293 cells; settings: 20µM fatty acid concentration
T9 construct: Human mAC genes were from GenScript and fitted with a C-terminal FLAG-tag; FLAG (C); made in house; host or cells: HEK293, permanently transfected; membrane preparation
Protocol: as §1, §2

T8 sequence (O60266 whole entry): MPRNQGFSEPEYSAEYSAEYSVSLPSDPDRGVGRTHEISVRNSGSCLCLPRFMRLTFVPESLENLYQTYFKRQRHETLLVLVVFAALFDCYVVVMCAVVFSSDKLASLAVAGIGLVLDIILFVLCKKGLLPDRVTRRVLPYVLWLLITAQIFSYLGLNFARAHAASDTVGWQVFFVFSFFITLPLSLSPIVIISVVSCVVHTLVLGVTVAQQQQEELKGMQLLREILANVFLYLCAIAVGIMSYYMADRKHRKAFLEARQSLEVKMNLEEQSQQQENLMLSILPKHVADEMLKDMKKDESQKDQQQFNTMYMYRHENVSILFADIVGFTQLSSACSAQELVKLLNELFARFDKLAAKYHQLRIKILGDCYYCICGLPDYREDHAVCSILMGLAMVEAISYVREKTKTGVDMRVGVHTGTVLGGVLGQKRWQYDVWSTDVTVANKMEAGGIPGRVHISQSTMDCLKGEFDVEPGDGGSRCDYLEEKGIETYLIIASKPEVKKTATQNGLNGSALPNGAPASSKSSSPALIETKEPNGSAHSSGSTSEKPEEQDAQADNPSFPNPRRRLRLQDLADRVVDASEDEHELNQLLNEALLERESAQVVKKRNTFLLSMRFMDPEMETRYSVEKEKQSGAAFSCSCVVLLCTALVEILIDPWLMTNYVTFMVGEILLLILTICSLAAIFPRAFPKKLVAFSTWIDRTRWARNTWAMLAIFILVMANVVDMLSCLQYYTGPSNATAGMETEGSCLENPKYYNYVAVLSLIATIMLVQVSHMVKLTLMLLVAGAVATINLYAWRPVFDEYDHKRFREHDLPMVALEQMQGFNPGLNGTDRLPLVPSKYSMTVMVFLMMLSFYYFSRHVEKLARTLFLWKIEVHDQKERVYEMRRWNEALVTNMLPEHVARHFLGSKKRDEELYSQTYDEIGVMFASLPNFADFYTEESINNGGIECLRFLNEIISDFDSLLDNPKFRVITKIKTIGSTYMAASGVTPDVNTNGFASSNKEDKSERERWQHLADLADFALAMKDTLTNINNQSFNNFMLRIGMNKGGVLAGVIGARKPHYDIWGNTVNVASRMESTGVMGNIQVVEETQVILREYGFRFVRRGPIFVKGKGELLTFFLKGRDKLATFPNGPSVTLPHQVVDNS
T8 sequence (P63092 whole entry Q227L partner): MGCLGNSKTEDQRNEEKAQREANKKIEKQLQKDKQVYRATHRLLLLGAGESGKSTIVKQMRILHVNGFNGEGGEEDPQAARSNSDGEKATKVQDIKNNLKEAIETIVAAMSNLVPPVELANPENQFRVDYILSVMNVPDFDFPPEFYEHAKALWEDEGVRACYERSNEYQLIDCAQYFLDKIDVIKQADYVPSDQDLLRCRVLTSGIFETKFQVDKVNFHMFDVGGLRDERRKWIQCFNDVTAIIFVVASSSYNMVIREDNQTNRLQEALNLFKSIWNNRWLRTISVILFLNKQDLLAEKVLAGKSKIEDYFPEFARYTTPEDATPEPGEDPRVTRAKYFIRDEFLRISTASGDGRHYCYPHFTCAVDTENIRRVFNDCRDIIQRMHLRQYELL
T3 sequence (Q08828 whole entry): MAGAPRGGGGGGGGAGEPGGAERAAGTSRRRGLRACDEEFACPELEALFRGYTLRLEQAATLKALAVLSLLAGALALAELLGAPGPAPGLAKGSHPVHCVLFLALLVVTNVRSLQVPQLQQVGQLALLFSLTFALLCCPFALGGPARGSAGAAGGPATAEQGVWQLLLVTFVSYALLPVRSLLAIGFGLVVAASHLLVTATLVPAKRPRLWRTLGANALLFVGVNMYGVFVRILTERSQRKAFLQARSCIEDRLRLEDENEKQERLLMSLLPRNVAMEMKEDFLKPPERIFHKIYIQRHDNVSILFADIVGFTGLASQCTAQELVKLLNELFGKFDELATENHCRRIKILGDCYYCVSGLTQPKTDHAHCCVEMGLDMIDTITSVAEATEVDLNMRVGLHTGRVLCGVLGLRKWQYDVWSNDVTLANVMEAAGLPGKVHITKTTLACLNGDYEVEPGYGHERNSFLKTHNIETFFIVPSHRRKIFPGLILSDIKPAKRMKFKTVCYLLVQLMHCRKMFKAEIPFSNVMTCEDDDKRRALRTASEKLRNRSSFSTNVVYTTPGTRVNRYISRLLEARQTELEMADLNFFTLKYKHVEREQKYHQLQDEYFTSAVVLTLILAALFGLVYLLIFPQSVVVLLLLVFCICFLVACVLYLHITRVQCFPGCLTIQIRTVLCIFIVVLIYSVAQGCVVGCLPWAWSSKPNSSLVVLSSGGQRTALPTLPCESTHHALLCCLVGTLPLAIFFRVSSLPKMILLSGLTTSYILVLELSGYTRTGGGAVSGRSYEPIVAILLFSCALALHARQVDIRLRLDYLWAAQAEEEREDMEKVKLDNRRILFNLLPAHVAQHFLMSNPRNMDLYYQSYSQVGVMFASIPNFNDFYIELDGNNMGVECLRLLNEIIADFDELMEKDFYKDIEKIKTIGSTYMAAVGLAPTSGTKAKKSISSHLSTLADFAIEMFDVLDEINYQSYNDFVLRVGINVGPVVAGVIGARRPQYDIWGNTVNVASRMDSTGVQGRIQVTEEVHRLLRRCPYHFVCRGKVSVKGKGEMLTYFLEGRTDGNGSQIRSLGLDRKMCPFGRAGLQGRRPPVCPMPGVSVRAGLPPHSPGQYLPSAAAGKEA
T2 sequence (Q08462 whole entry): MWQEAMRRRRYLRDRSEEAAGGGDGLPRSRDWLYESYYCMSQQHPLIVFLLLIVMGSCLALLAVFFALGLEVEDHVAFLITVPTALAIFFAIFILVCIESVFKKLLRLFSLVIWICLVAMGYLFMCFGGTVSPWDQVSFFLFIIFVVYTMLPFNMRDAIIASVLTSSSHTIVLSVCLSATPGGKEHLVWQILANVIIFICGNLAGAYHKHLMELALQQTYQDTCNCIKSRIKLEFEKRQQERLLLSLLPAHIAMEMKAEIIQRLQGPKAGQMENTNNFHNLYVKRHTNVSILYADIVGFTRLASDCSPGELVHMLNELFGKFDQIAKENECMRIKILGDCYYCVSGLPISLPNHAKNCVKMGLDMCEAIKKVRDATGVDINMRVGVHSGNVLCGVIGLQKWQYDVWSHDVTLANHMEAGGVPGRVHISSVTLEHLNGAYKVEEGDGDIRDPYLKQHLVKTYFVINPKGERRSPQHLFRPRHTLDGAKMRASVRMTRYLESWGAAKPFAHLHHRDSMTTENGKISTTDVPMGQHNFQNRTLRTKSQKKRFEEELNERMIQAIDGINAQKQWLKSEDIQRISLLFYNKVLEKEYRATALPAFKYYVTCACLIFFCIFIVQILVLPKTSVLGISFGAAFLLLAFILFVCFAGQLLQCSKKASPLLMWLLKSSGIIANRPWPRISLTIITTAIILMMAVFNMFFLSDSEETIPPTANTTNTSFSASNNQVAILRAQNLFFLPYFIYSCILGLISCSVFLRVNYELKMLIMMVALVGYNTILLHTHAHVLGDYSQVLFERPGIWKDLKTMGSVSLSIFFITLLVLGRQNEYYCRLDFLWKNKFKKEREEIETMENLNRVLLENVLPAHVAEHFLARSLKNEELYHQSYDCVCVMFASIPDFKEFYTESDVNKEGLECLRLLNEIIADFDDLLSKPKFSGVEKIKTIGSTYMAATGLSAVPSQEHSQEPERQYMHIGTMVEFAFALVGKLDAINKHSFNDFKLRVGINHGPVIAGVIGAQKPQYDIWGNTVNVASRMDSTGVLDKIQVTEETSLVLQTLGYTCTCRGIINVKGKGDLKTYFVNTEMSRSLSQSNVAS
T2 sequence (P63092 2-394 Q227L partner): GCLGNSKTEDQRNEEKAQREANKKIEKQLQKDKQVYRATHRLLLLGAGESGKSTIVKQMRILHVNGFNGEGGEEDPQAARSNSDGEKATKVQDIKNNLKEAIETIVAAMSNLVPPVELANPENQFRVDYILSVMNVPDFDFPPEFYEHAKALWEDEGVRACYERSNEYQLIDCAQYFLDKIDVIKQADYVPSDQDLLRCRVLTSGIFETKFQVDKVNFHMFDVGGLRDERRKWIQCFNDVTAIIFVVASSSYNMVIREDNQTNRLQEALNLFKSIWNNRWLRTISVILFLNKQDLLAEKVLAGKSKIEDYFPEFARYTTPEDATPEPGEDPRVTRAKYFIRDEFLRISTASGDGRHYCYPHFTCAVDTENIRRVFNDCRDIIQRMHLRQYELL

CCCCCCCCCCCCCC(=O)O [Myristic acid, Myristic (tetradecanoic) acid]
mAC9 activity (%);(100% = Gsα stimulation) stimulated by 300nM Gsα (mAC9; 1 µM fatty acid): 82% and 122% and 127% and 109% and 126% and 137% | mAC9 activity (%);(100% = Gsα stimulation) stimulated by 300nM Gsα (mAC9; 3 µM fatty acid): 129% and 111% and 136% and 125% | mAC9 activity (%);(100% = Gsα stimulation) stimulated by 300nM Gsα (mAC9; 6 µM fatty acid): 104% and 129% and 178% and 179% and 144% and 168% | mAC9 activity (%);(100% = Gsα stimulation) stimulated by 300nM Gsα (mAC9; 10 µM fatty acid): 130% and 135% and 224% and 171% and 187% and 200% and 115% | mAC9 activity (%);(100% = Gsα stimulation) stimulated by 300nM Gsα (mAC9; 20 µM fatty acid): 168% and 189% and 240% and 185% and 310% | mAC9 activity [%] (100% = 300nM Gsα stimulation); 20µM fatty acid concentration (mAC9; 20 µM fatty acid): 185% and 310% and 168% and 189% and 240% | mAC2 activity [%] (100% = 300nM Gsα stimulation); 20µM fatty acid concentration (mAC2): 102% and 121% and 90% and 101% | mAC1 activity [%] (100% = 300nM Gsα stimulation); 20µM fatty acid concentration (mAC1; 300 nM Gsα, single experiments): 91% and 96% and 101% | mAC5 activity [%] (100% = 300nM Gsα stimulation) (mAC5): 105% and 80% and 76% | mAC8 activity [%] (100% = 300nM Gsα stimulation) (mAC8): 119% and 130% and 99% | mAC7 activity [%] (100% = 300nM Gsα stimulation); 20µM fatty acid concentration (mAC7): 94% and 152% and 85% and 110% | mAC4 activity [%] (100% = 300nM Gsα stimulation); 20µM fatty acid concentration (mAC4; 300 nM Gsα, single experiments): 71% and 59% and 97% | Effect of lipid on 300 nM Gsα-stimulated mAC3 (mAC3): no significant effect | mAC3 activity [%] (100% = 300nM Gsα stimulation) (mAC3): 90% and 108% and 224% and 226% | mAC6 activity [%] (100% = 300nM Gsα stimulation) (mAC6): 98% and 72% and 83%

CCCCCC/C=C\CCCCCCCC(=O)O [Palmitoleic acid, Palmitoleic ((9Z)-hexadecenoic) acid]
mAC9 activity (%);(100% = Gsα stimulation) stimulated by 300nM Gsα (mAC9; 1 µM fatty acid): 136% and 130% and 125% | mAC2 activity [%] (100% = 300nM Gsα stimulation); 20µM fatty acid concentration (mAC2): 82% and 120% and 125% | IC50 (mAC1): 49 µM | activity at 1 µM (mAC1; 1 µM, 300 nM Gsα, single experiments, read-out: mAC1 activity (%);(100% = Gsα stimulation) stimulated by 300nM Gsα): 84% | activity at 6 µM (mAC1; 6 µM, 300 nM Gsα, single experiments, read-out: mAC1 activity (%);(100% = Gsα stimulation) stimulated by 300nM Gsα): 97% | mAC1 activity [%] (100% = 300nM Gsα stimulation); 20µM fatty acid concentration (mAC1; 300 nM Gsα, single experiments): 56% and 77% and 83% and 82% and 92% | Effect of lipid on 300 nM Gsα-stimulated mAC1 (mAC1; 20 µM, in words): somewhat less | activity at 25 µM (mAC1; 25 µM, 300 nM Gsα, single experiments, read-out: mAC1 activity (%);(100% = Gsα stimulation) stimulated by 300nM Gsα): 50% | activity at 50 µM (mAC1; 50 µM, 300 nM Gsα, single experiments, read-out: mAC1 activity (%);(100% = Gsα stimulation) stimulated by 300nM Gsα): 31% | activity at 0.1 µM (mAC1; read-out: mAC1 activity (%);(100% = Gsα stimulation) stimulated by 300nM Gsα, 0.1 µM, 300 nM Gsα, single experiments (reference point, all 100)): 100% | mAC5 activity [%] (100% = 300nM Gsα stimulation) (mAC5): 99% and 92% and 101% | mAC8 activity [%] (100% = 300nM Gsα stimulation) (mAC8): 116% and 103% and 76% | mAC7 activity [%] (100% = 300nM Gsα stimulation); 20µM fatty acid concentration (mAC7): 91% and 107% and 128% | mAC4 activity [%] (100% = 300nM Gsα stimulation); 20µM fatty acid concentration (mAC4; 300 nM Gsα, single experiments): 58% and 74% and 53% and 64% and 83% | Effect of lipid on 300 nM Gsα-stimulated mAC4 (mAC4; 20 µM, in words): somewhat less | IC50 (mAC4; attenuation of 300 nM Gsα-stimulated activity, read-out: IC50 for mAC4): 20 µM | activity at 0.1 µM (mAC4; read-out: mAC4 activity (%);(100% = Gsα stimulation) stimulated by 300nM Gsα, 0.1 µM, 300 nM Gsα, single experiments (reference point, all 100)): 100% | activity at 25 µM (mAC4; read-out: mAC4 activity (%);(100% = Gsα stimulation) stimulated by 300nM Gsα, 25 µM, 300 nM Gsα, single experiments): 49% | activity at 50 µM (mAC4; read-out: mAC4 activity (%);(100% = Gsα stimulation) stimulated by 300nM Gsα, 50 µM, 300 nM Gsα, single experiments): 19% | activity at 60 µM (mAC4; read-out: mAC4 activity (%);(100% = Gsα stimulation) stimulated by 300nM Gsα, 60 µM, 300 nM Gsα, single experiments): 75% | activity at 100 µM (mAC4; read-out: mAC4 activity (%);(100% = Gsα stimulation) stimulated by 300nM Gsα, 100 µM, 300 nM Gsα, single experiments): 44% | Effect of lipid on 300 nM Gsα-stimulated mAC3 (mAC3): less efficacious | mAC3 activity [%] (100% = 300nM Gsα stimulation) (mAC3): 151% and 133% and 248% and 259% and 116% and 136% and 292% | mAC6 activity [%] (100% = 300nM Gsα stimulation) (mAC6): 71% and 89% and 68%
